Values joined by “and” are separate entries in the source; they are usually repeats but may differ in a detail not shown here. Equal entries are not always repeated.
Test: mn = molality of the nth substance listed, in mol/kg
Settings: 100 kPa, Liquid; for viscosity: Capillary tube (Ostwald / Ubbelohde) method; for mass density: Vibrating tube method

CN(CC(=O)O)C(=N)N [N-amidinosarcasine] + O
Settings	mass density, 293.15 K [kg/m3]	mass density, 298.15 K [kg/m3]	mass density, 303.15 K [kg/m3]	mass density, 308.15 K [kg/m3]	mass density, 313.15 K	viscosity, 293.15 K [mPa·s]	viscosity, 298.15 K [mPa·s]	viscosity, 303.15 K [mPa·s]	viscosity, 308.15 K [mPa·s]	viscosity, 313.15 K [mPa·s]
m1 = 0.02	–	–	–	–	–	1.008	0.895	0.804	0.723	0.658
m1 = 0.03	–	–	–	–	–	1.011	0.898	0.806	0.727	0.659
m1 = 0.0306	999.51	998.33	996.9	995.23	993.35 kg/m3	–	–	–	–	–
m1 = 0.04	999.9	998.72	997.28	995.6	993.7 kg/m3	1.014	0.901	0.808	0.729	0.662
m1 = 0.0406	999.93	998.74	997.31	995.63	993.73 kg/m3	–	–	–	–	–
m1 = 0.0477	1000.23	999.04	997.6	995.91	994 kg/m3	–	–	–	–	–
m1 = 0.05	1000.33	999.13	997.69	996	994.09 kg/m3	1.017	0.904	0.81	0.731	0.664
m1 = 0.0548	1000.53	999.33	997.89	996.2	994.28 kg/m3	–	–	–	–	–
m1 = 0.0564	1000.59	999.4	997.96	996.26	994.35 kg/m3	–	–	–	–	–
m1 = 0.0597	1000.73	999.53	998.09	996.39	994.47 kg/m3 and 994.48 kg/m3	1.019	0.907	0.811	0.733	0.665
m1 = 0.0675	1001.06	999.86	998.41	996.71	994.79 kg/m3	–	–	–	–	–
m1 = 0.0701	1001.17	999.96	998.52	996.82	994.89 kg/m3	1.024	0.91	0.817	0.737	0.669
m1 = 0.0727	1001.27	1000.07	998.63	996.92	995 kg/m3	–	–	–	–	–
m1 = 0.0782	1001.5	1000.29	998.85	997.15	995.22 kg/m3	–	–	–	–	–
m1 = 0.08	1001.58	1000.37	998.93	997.22	995.3 kg/m3	1.028	0.913	0.818	0.738	0.67
m1 = 0.0898	1001.98	1000.77	999.34	997.63	995.71 kg/m3	–	–	–	–	–
m1 = 0.09	1001.99	1000.78	999.34	997.64	995.71 kg/m3	1.033	0.917	0.823	0.74	0.672
m1 = 0.0926	1002.1	1000.89	999.45	997.74	995.82 kg/m3	–	–	–	–	–
m1 = 0.1038	1002.56	1001.35	999.92	998.21	996.3 kg/m3	–	–	–	–	–
m1 = 0.1113	1002.87	1001.65	1000.23	998.53	996.62 kg/m3	–	–	–	–	–
m1 = 0.1207	1003.25	1002.04	1000.62	998.93	997.03 kg/m3	–	–	–	–	–
m1 = 0.1287	1003.58	1002.36	1000.96	999.26	997.39 kg/m3	–	–	–	–	–
m1 = 0.1326	1003.74	1002.52	1001.12	999.43	997.56 kg/m3	–	–	–	–	–

CN1CC(=O)NC1=N [creatinine] + O
Settings	mass density, 293.15 K [kg/m3]	mass density, 298.15 K [kg/m3]	mass density, 303.15 K [kg/m3]	mass density, 308.15 K [kg/m3]	mass density, 313.15 K [kg/m3]	viscosity, 293.15 K [mPa·s]	viscosity, 298.15 K [mPa·s]	viscosity, 303.15 K [mPa·s]	viscosity, 308.15 K [mPa·s]	viscosity, 313.15 K [mPa·s]
m1 = 0.1001	1001.16	999.95	998.49	996.82	994.94	–	–	–	–	–
m1 = 0.147	1002.53	1001.29	999.82	998.13	996.21	–	–	–	–	–
m1 = 0.2001	–	–	–	–	–	1.053	0.935	0.837	0.755	0.685
m1 = 0.202	1004.12	1002.86	1001.37	999.64	997.69	–	–	–	–	–
m1 = 0.25	1005.5	1004.22	1002.71	1000.97	999	–	–	–	–	–
m1 = 0.2999	–	–	–	–	–	1.077	0.956	0.856	0.772	0.7
m1 = 0.3023	1006.99	1005.69	1004.16	1002.4	1000.43	–	–	–	–	–
m1 = 0.3496	1008.33	1007.01	1005.48	1003.7	1001.71	–	–	–	–	–
m1 = 0.3996	–	–	–	–	–	1.102	0.978	0.875	0.789	0.715
m1 = 0.4028	1009.83	1008.48	1006.94	1005.13	1003.12	–	–	–	–	–
m1 = 0.5002	–	–	–	–	–	1.126	0.999	0.894	0.806	0.73
m1 = 0.5014	1012.57	1011.2	1009.63	1007.79	1005.76	–	–	–	–	–
m1 = 0.5514	1013.95	1012.56	1010.97	1009.12	1007.08	–	–	–	–	–
m1 = 0.6	–	–	–	–	–	1.15	1.02	0.912	0.822	0.745
m1 = 0.6018	1015.33	1013.93	1012.34	1010.48	1008.4	–	–	–	–	–
m1 = 0.6087	1015.52	1014.11	1012.53	1010.65	1008.61	–	–	–	–	–
m1 = 0.6491	1016.62	1015.21	1013.61	1011.72	1009.65	–	–	–	–	–
m1 = 0.7	–	–	–	–	–	1.173	1.04	0.93	0.838	0.759
